From patent US9247750B2, “Polyenylcyclopropanecarboxylic esters with high insecticidal activity” (Endura S.P.A., priority 2007, dated 2016)

Experiments:
Aedes aegypti = assay: Insecticide effectiveness in the vapour phase against mosquitoes, impregnated paper unit in 20 m^3 room (Example 9); assay type: in vivo; settings: 5 mg/unit; for % mortality 24 h: 24th hour from start of test; for % Knock-down 8 h: at end of 8th hour
Procedure: (§1) Test units consisting of a paper support 20 cm×10 cm in size were impregnated with the compound of examples 3, 7 and 8 and, for comparative purposes, with the reference compounds transfluthrin and metofluthrin, at an amount of 5.00 mg/unit for each compound (pure). Using a common laboratory stand, the test unit was placed at a height of about 30 cm from the ground along one side of a 20 m^3 room (L 3.00 m×D 2.49 m×H 2.69 m). In order to homogenize the insecticidal air within the room, a small electric fan was placed on the floor diagonal to the surface of the unit, in the nearest corner at a distance of about 50 cm from the unit. Three metal cages (L 8.4 cm×Ø 8.0 cm×mesh 1.0 mm) for every mosquito species, each containing 20 3-4 day old individuals of mixed sex, were placed along the other three sides of the room, at a height of 1.80 m from the ground and at a distance of 0.45 m from the respective walls. During the test the room was kept closed and temperature and humidity were controlled (T 23-26° C., RH 49-61%). The fan was switched on and left on for 8 continuous hours. The times needed to reach 10%, 50% and 90% insect knock-down (KT10, KT50 and KT90, respectively) were recorded.
(§2) Every 2 hours and up to the 6th hour after the fan was switched on, new cages were introduced containing insects (set of 3 cages for each species).
(§3) At the end of the 8th hour, the percentage of insects knocked down in all the cages was determined, then the insects were removed from the room and transferred into an uncontaminated atmosphere within closed containers containing a sugary solution. The percentage mortality was recorded at the 24th hour from the start of the test.
(§4) The results obtained are summarized in tables 1 and 2 and the data are averages for the 3 cages.

Culex quinquefasciatus = assay: as above; assay type: in vivo; settings: 5 mg/unit; for % mortality 24 h: 24th hour from start of test; for % Knock-down 8 h: at end of 8th hour
Procedure: as §1, §2, §3, §4

With `C=CC=C[C@@H]1[C@@H](C(=O)OCc2coc(Cc3ccccc3)c2)C1(C)C` (mixture of isomers) [Example 7, (2-benzyl-4-hydroxymethylfuryl) (1R,3R)-3-((E/Z)-Buta-1,3-dienyl)-2,2-dimethylcyclopropane-1-carboxylate] the “% mortality 24 h” value (Aedes aegypti; insect exposure after 0 hours) was 79%, the “% Knock-down 8 h” value (Aedes aegypti; insect exposure after 0 hours) was 5% and the “% mortality 24 h” value (Aedes aegypti; insect exposure after 2 hours) was 79%. For the same compound, the “% Knock-down 8 h” value (Aedes aegypti; insect exposure after 2 hours) was 0%, the “% mortality 24 h” value (Aedes aegypti; insect exposure after 4 hours) was 65% and the “% Knock-down 8 h” value (Aedes aegypti; insect exposure after 4 hours) was 0%. For the same compound, the “% mortality 24 h” value (Culex quinquefasciatus; insect exposure after 0 hours) was 70%, the “% Knock-down 8 h” value (Culex quinquefasciatus; insect exposure after 0 hours) was 8% and the “% mortality 24 h” value (Culex quinquefasciatus; insect exposure after 2 hours) was 35%. The “% Knock-down 8 h” value (Culex quinquefasciatus; insect exposure after 2 hours) was 2%, the “% mortality 24 h” value (Culex quinquefasciatus; insect exposure after 4 hours) was 23% and the “% Knock-down 8 h” value (Culex quinquefasciatus; insect exposure after 4 hours) was 0%.
